Assay results published in US10149809B2, “Skin aging inhibitor and concentrate of resveratrol 3-O-α-glucoside” (priority 2014, dated 2018).

What was measured:
[1] = Solubility in solvent containing ethanol; assay type: physicochemical
Experimental: (§1) Approximately 40 mg each of resveratrol 3-O-α-glucoside, resveratrol (Tokyo Chemical Industry Co., Ltd.), and resveratrol 3-O-β-glucoside (Tokyo Chemical Industry Co., Ltd.) was weighed, approximately 70 mg of a solvent (whose composition is shown in Table 18) containing ethanol (Wako Pure Chemical Industries, Ltd.) was added thereto, and the mixture was soaked in a water bath at 25° C. under light-tight conditions, and incubated for 15 hours with occasional stirring. After 15 hours, each of the samples was filtered through a 0.45 μm centrifugal filter, and then the concentration of each of the components in the filtrate was analyzed using HPLC under the same conditions as those described in Production Example 1 above. The dissolved concentration (w/v %) at 25° C. was thus determined.

[2] = test system: skin model (MEL-312B; MatTek); experiment: Melanogenesis suppressing effect in skin model (amount of melanin, visual observation); assay type: cell-based; details: 16 days; for Relative Amount of Melanin: PBS control group = 100%; for Visual Observation: compared with PBS control group
Experimental: Resveratrol 3-O-α-glucoside, resveratrol (Tokyo Chemical Industry Co., Ltd.), or resveratrol 3-O-β-glucoside (Tokyo Chemical Industry Co., Ltd.) was prepared into a 0.2 wt % solution or suspension with the addition of PBS, and the resulting solution or suspension was used as a test substance. A skin model (MEL-312B; MatTek) was used, and 50 μL of the test substance was added to the horny layer side of the skin model and cultured in a special medium (EPI-100NMM-113; MatTek) at 37° C. for 16 days. On days 2, 4, 7, 9, 11, and 14, the medium and the test substance were replaced with fresh ones. As a control group, the same operation was performed using PBS instead of the test substance.
After 16 days of culture, the skin model was visually observed, and the amount of melanin in the skin model was evaluated. The amount of melanin was measured using the following method. Initially, the collected skin model was subjected to enzymatic degradation by proteinase-K, and was subsequently homogenated in PBS containing 1% triton X-100. Melanin was then extracted by washing with 10% TCA and ethanol. Next, the extracted melanin was dissolved in 0.5 mL of 1N-NaOH containing 10% DMSO at 80° C. for 2 hours, and the amount of melanin was quantified by measuring absorbance at 470 nm.
Resveratrol 3-O-α-glucoside was prepared into a 0.2 wt % solution, a 0.1 wt % solution, or a 0.01 wt % solution with the addition of PBS. The resulting solution was used as a test substance, and the melanogenesis suppressing effect was evaluated using the same method as that of Example 1 above. […]

[3] = Solubility in solvent containing 1,3-butylene glycol; assay type: physicochemical
Experimental: as §1
The solubility of resveratrol 3-O-α-glucoside was evaluated under the same conditions as those described in Example 18 above, except that a solvent (whose composition is shown in Table 21) containing 1,3-butylene glycol (Wako Pure Chemical Industries, Ltd.) was used.

[4] = test system: matrix metalloproteinase 9 (MMP9) gene; experiment: MMP9 gene expression in the epidermis (three-dimensional human skin model); assay type: cell-based; details: 100 μL, 8 hours, distilled water control = 100%
Experimental: Using a three-dimensional human skin model, the effect of resveratrol 3-O-α-glucoside on the matrix metalloproteinase 9 (MMP9) gene expression in the epidermis was investigated.
An aqueous solution containing resveratrol 3-O-α-glucoside at a concentration of 0.02 or 0.1 wt %, or containing resveratrol 3-O-β-glucoside at a concentration of 0.02 wt % was prepared, and the resulting solution was used as a sample solution. One-hundred microliters of the sample solution were administered to the horny layer side of the human skin model (EpiDerm EPI-200; MatTek), and cultured in 5 mL of a special medium (EPI-100-ASY) at 37° C. for 8 hours. After the culture, total RNA was extracted from the skin model, and the level of expression of the MMP9 gene was quantified by real time PCR. As a control group, distilled water was administered to a skin model instead of the sample solution, and total RNA collected from the skin model was used.
Taking as 100% the level of expression of the MMP9 gene for the control group, a relative ratio of the expression level of the MMP9 gene for the resveratrol 3-O-α-glucoside- or resveratrol 3-O-β-glucoside-supplemented group (MMP9 gene expression ratio, %) was determined. In the measurement of the expression level of the MMP9 gene, PPIA was used for internal standard correction.

[5] = Solubility in solvent containing propylene glycol; assay type: physicochemical
Experimental: as §1
The solubility of resveratrol 3-O-α-glucoside was evaluated under the same conditions as those described in Example 18 above, except that a solvent (whose composition is shown in Table 20) containing propylene glycol (Wako Pure Chemical Industries, Ltd.) was used.

[6] = Solubility in solvent containing 1,2-hexanediol; assay type: physicochemical
Experimental: as §1
The solubility of resveratrol 3-O-α-glucoside was evaluated under the same conditions as those described in Example 18 above, except that a solvent (whose composition is shown in Table 24) containing 1,2-hexanediol (Kankosha Co., Ltd.) was used.

[7] = EpiDerm EPI-200, 0.02 wt % aqueous solution

OC[C@H]1O[C@H](Oc2cc(O)cc(C=Cc3ccc(O)cc3)c2)[C@H](O)[C@@H](O)[C@@H]1O [Resveratrol 3-O-α-Glucoside, resveratrol 3-O-α-glucoside]
dissolved concentration [1]: exceeded 30 w/v %
Dissolved Concentration (w/v %) at 25° C. ([1]; 15 h): 0.3 w/v %
Relative Amount of Melanin ([2]; 0.01 wt % in PBS): 88%
Visual Observation ([2]; 0.01 wt % in PBS): slightly whiter than the
Relative Amount of Melanin ([2]; 0.1 wt % in PBS): 67%
Relative Amount of Melanin ([2]; 0.2 wt % in PBS, 50 μL): 46%
dissolved concentration [3]: exceeded 20 w/v %
MMP9 Gene Expression Ratio (%) [4, 7]: 85%
MMP9 Gene Expression Ratio (%) ([4]; EpiDerm EPI-200, 0.1 wt % aqueous solution): 66%
dissolved concentration [5]: exceeded 30 w/v %
Dissolved Concentration (w/v %) at 25° C. ([5]; 15 h): 0.3 w/v %
dissolved concentration [6]: exceeded 25 w/v %

OC[C@H]1O[C@@H](Oc2cc(O)cc(/C=C/c3ccc(O)cc3)c2)[C@H](O)[C@@H](O)[C@@H]1O [Resveratrol 3-O-β-Glucoside, resveratrol 3-O-β-glucoside]
Dissolved Concentration (w/v %) at 25° C. ([1]; Ethanol:Water 0:100 (weight ratio), 15 hours): 0.04 w/v %
Dissolved Concentration (w/v %) at 25° C. ([1]; Ethanol:Water 5:95 (weight ratio), 15 hours): 0.05 w/v %
Dissolved Concentration (w/v %) at 25° C. ([1]; Ethanol:Water 10:90 (weight ratio), 15 hours): 0.06 w/v %
Dissolved Concentration (w/v %) at 25° C. ([1]; Ethanol:Water 15:85 (weight ratio), 15 hours): 0.1 w/v %
Dissolved Concentration (w/v %) at 25° C. ([1]; Ethanol:Water 20:80 (weight ratio), 15 hours): 0.2 w/v %
Dissolved Concentration (w/v %) at 25° C. ([1]; Ethanol:Water 25:75 (weight ratio), 15 hours): 0.4 w/v %
Dissolved Concentration (w/v %) at 25° C. ([1]; Ethanol:Water 30:70 (weight ratio), 15 hours): 0.7 w/v %
Dissolved Concentration (w/v %) at 25° C. ([1]; Ethanol:Water 40:60 (weight ratio), 15 hours): 2.6 w/v %
Dissolved Concentration (w/v %) at 25° C. ([1]; Ethanol:Water 50:50 (weight ratio), 15 hours): 5.3 w/v %
Dissolved Concentration (w/v %) at 25° C. ([1]; Ethanol:Water 75:25 (weight ratio), 15 hours): 13.8 w/v %
Dissolved Concentration (w/v %) at 25° C. ([1]; Ethanol:Water 90:10 (weight ratio), 15 hours): 7.3 w/v %
Dissolved Concentration (w/v %) at 25° C. ([1]; Ethanol:Water 100:0 (weight ratio), 15 hours): 2.4 w/v %
Visual Observation ([2]; 0.2 wt % in PBS, 50 μL to horny layer side): the same as the control
Relative Amount of Melanin ([2]; 0.2 wt % in PBS, 50 μL): 79%
Dissolved Concentration (w/v %) at 25° C. ([3]; 1,3-Butylene Glycol:Water 0:100 (weight ratio)): 0.04 w/v %
Dissolved Concentration (w/v %) at 25° C. ([3]; 1,3-Butylene Glycol:Water 5:95 (weight ratio)): 0.04 w/v %
Dissolved Concentration (w/v %) at 25° C. ([3]; 1,3-Butylene Glycol:Water 10:90 (weight ratio)): 0.07 w/v %
Dissolved Concentration (w/v %) at 25° C. ([3]; 1,3-Butylene Glycol:Water 15:85 (weight ratio)): 0.1 w/v %
Dissolved Concentration (w/v %) at 25° C. ([3]; 1,3-Butylene Glycol:Water 20:80 (weight ratio)): 0.2 w/v %
Dissolved Concentration (w/v %) at 25° C. ([3]; 1,3-Butylene Glycol:Water 25:75 (weight ratio)): 0.3 w/v %
Dissolved Concentration (w/v %) at 25° C. ([3]; 1,3-Butylene Glycol:Water 50:50 (weight ratio)): 2.8 w/v %
Dissolved Concentration (w/v %) at 25° C. ([3]; 1,3-Butylene Glycol:Water 75:25 (weight ratio)): 7.5 w/v %
Dissolved Concentration (w/v %) at 25° C. ([3]; 1,3-Butylene Glycol:Water 90:10 (weight ratio)): 9.7 w/v %
Dissolved Concentration (w/v %) at 25° C. ([3]; 1,3-Butylene Glycol:Water 100:0 (weight ratio)): 7.2 w/v %
MMP9 Gene Expression Ratio (%) [4, 7]: 124%
Dissolved Concentration (w/v %) at 25° C. ([5]; Propylene Glycol:Water 0:100 (weight ratio)): 0.04 w/v %
Dissolved Concentration (w/v %) at 25° C. ([5]; Propylene Glycol:Water 5:95 (weight ratio)): 0.04 w/v %
Dissolved Concentration (w/v %) at 25° C. ([5]; Propylene Glycol:Water 10:90 (weight ratio)): 0.06 w/v %
Dissolved Concentration (w/v %) at 25° C. ([5]; Propylene Glycol:Water 15:85 (weight ratio)): 0.09 w/v %
Dissolved Concentration (w/v %) at 25° C. ([5]; Propylene Glycol:Water 20:80 (weight ratio)): 0.1 w/v %
Dissolved Concentration (w/v %) at 25° C. ([5]; Propylene Glycol:Water 25:75 (weight ratio)): 0.2 w/v %
Dissolved Concentration (w/v %) at 25° C. ([5]; Propylene Glycol:Water 50:50 (weight ratio)): 3.3 w/v %
Dissolved Concentration (w/v %) at 25° C. ([5]; Propylene Glycol:Water 75:25 (weight ratio)): 11.5 w/v %
Dissolved Concentration (w/v %) at 25° C. ([5]; Propylene Glycol:Water 90:10 (weight ratio)): 12.5 w/v %
Dissolved Concentration (w/v %) at 25° C. ([5]; Propylene Glycol:Water 100:0 (weight ratio)): 11.3 w/v %
Dissolved Concentration (w/v %) at 25° C. ([6]; 1,2-Hexanediol:Water 0:100 (weight ratio)): 0.04 w/v %
Dissolved Concentration (w/v %) at 25° C. ([6]; 1,2-Hexanediol:Water 5:95 (weight ratio)): 0.1 w/v %
Dissolved Concentration (w/v %) at 25° C. ([6]; 1,2-Hexanediol:Water 10:90 (weight ratio)): 0.5 w/v %
Dissolved Concentration (w/v %) at 25° C. ([6]; 1,2-Hexanediol:Water 25:75 (weight ratio)): 2.6 w/v %
Dissolved Concentration (w/v %) at 25° C. ([6]; 1,2-Hexanediol:Water 50:50 (weight ratio)): 6.5 w/v %
Dissolved Concentration (w/v %) at 25° C. ([6]; 1,2-Hexanediol:Water 75:25 (weight ratio)): 7.9 w/v %
Dissolved Concentration (w/v %) at 25° C. ([6]; 1,2-Hexanediol:Water 90:10 (weight ratio)): 10.7 w/v %
Dissolved Concentration (w/v %) at 25° C. ([6]; 1,2-Hexanediol:Water 100:0 (weight ratio)): 3.2 w/v %
